# Laboratory results published in the supplement of paper PMC8967900.
# How the values were obtained:
# Test in all cases: selective drug sensitivity score (sDSS, relative to normal bone marrow) (sDSS (score)); higher = more potent and effective on the cell line relative to normal bone marrow cells
# Conditions in all cases: 72 h
# [1] = tested on: 380
# [2] = tested on: COG-LL-332h
# [3] = tested on: CCRF-CEM
# [4] = tested on: ALL-PO
# [5] = tested on: COG-LL-402h
# [6] = tested on: RCH-ACV
# [7] = tested on: LC4-1
# [8] = tested on: MOLT-14
# [9] = tested on: ALL-SIL
# [10] = tested on: MHH-CALL-4
# [11] = tested on: HPB-ALL
# [12] = tested on: JURKAT
# [13] = tested on: P30-OHKUBO
# [14] = tested on: MN-60
# [15] = tested on: SEM cells
# [16] = tested on: TMD5
# [17] = tested on: NALM-6
# [18] = tested on: 697
# [19] = tested on: COG-LL-319h
# [20] = tested on: MHH-CALL-2
# 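Also: ALL cell lines in 384-well plates, five doses spanning 10,000-fold, each plate scaled between vehicle and 100 µmol/L benzalkonium chloride controls, sDSS an adapted area-under-curve metric.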
SMILES,selective drug sensitivity score [1],selective drug sensitivity score [2],selective drug sensitivity score [3],selective drug sensitivity score [4],selective drug sensitivity score [5],selective drug sensitivity score [6],selective drug sensitivity score [7],selective drug sensitivity score [8],selective drug sensitivity score [9],selective drug sensitivity score [10],selective drug sensitivity score [11],selective drug sensitivity score [12],selective drug sensitivity score [13],selective drug sensitivity score [14],selective drug sensitivity score [15],selective drug sensitivity score [16],selective drug sensitivity score [17],selective drug sensitivity score [18],selective drug sensitivity score [19],selective drug sensitivity score [20]
Nc1ccn([C@@H]2O[C@H](CO)[C@@H](O)C2(F)F)c(=O)n1 [Gemcitabine] (top concentration 1000 nM),23.5,17.8,14.5,8.06,18.6,18.5,16.7,14.3,12.1,12.9,0.96,9.16,18,-0.34,24.9,-7.84,14.5,21,20.5,21.6
CC1(C)CCC(c2ccc(Cl)cc2)=C(CN2CCN(c3ccc(C(=O)NS(=O)(=O)c4ccc(N[C@H](CCN5CCOCC5)CSc5ccccc5)c(S(=O)(=O)C(F)(F)F)c4)cc3)CC2)C1 [Navitoclax] (top concentration 10000 nM),26.1,8.42,17.4,23.6,23.4,3.32,22.2,12.7,20,18.4,17.8,9.02,16.8,-8.58,14.2,16.9,11.7,13,22.1,21.1
NC1(c2ccc(-c3nc4ccn5c(=O)[nH]nc5c4cc3-c3ccccc3)cc2)CCC1 [MK-2206] (top concentration 1000 nM),4.76,2.86,6.36,5.46,2.76,13.2,0.06,-1.64,2.96,5.76,1.06,-0.24,6.36,-1.64,4.36,7.36,2.76,3.76,3.56,9.66
COc1cc2c(cc1-c1c(C)noc1C)ncc1[nH]c(=O)n([C@H](C)c3ccccn3)c12 [I-BET151] (top concentration 10000 nM),-7.44,-2.24,0.96,6.36,5.46,12.3,7.26,0.46,-2.14,5.96,1.36,0.36,7.16,6.76,10.5,-3.54,3.46,9.36,10.7,6.96
C=CC(=O)N1CC/C(=C\c2ccc(F)c([N+](=O)[O-])c2)C(=O)/C(=C/c2ccc(F)c([N+](=O)[O-])c2)C1 [VLX1570] (top concentration 10000 nM),6.88,-0.52,1.58,0.38,5.28,1.58,0.68,-0.92,-3.62,-1.22,-1.22,-8.52,1.88,-5.32,3.38,-2.62,4.08,-1.02,2.08,-3.32
C[C@H]1C=C2C(=O)O[C@H]3CC[C@@H](C1)[C@@]23O [Galiellalactone] (top concentration 25000 nM),13,6.06,5.86,-0.34,3.76,7.76,7.16,5.26,5.56,-3.84,5.16,1.66,5.26,2.46,3.56,1.46,5.16,3.26,7.46,4.16
C[C@@H](Nc1cc(F)cc(F)c1)c1cc(C(=O)N(C)C)cc2c(=O)cc(N3CCOCC3)oc12 [AZD-8186] (top concentration 1000 nM),2.84,-0.26,-0.26,0.34,5.14,14.9,-0.26,-0.26,-0.26,4.34,1.94,-0.26,7.24,-0.26,2.44,-0.26,5.14,3.64,0.74,4.64
C[C@@]1(C(=O)Nc2ccc(F)nc2)CCCN1c1nc(Nc2cc(C3CC3)n[nH]2)c2cccn2n1 (top concentration 10000 nM),18.1,10.5,11.8,13,8.18,6.08,11.4,12.7,10.5,4.58,8.28,-2.62,11.2,-4.62,8.98,-0.12,4.08,11.8,8.78,11.7
CCCCCCCCCCCCCCCCOP(=O)([O-])OCC[N+](C)(C)C [Miltefosine] (top concentration 100000 nM),-1.54,0.76,-0.04,2.26,0.46,3.16,7.46,0.76,3.36,-1.34,-2.94,-1.14,2.26,3.26,4.36,-1.64,1.66,1.46,2.76,6.96
